Literature values, collected in article PMC8812516 (Proceedings of the National Academy of Sciences of the …, 2022).

System: Shaker-IR channel

Substance: charybdotoxin
- effect of inactivation on affinity of toxins: inactivation does not alter the affinity of toxins for that channel
